Residues, ends and D or L forms follow the SMILES beside them. No end group written: not given here.
T1: AtETR1^1–307 (TM–GAF) (Arabidopsis thaliana, UniProt P49333 1-307, Alexa Fluor 488 C5 maleimide (thiol-reactive) label)
T1 construct: pTEV-16b: N-terminal His10, linker SSGH, TEV site ENLYFQG; no cleavage described; source: E. coli C43 (DE3), purified (membranes solubilised in fos-choline-16, Ni-NTA HisTrap)
T1 sequence (looked up): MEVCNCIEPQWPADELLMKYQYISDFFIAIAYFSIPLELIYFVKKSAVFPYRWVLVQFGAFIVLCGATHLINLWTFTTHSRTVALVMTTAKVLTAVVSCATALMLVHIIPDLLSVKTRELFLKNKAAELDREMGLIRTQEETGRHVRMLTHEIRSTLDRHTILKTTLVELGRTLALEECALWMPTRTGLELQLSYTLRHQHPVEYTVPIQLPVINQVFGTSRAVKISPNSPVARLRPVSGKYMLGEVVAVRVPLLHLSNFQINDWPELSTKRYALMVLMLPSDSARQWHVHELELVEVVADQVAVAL


biological target: T2, AtETR1^1–307 (TM–GAF) (Arabidopsis thaliana, UniProt P49333); assay: biochemical; assay type: binding; settings: not given
T2 construct: made in house; host or cells: E. coli C43 (DE3)

Molecule	Kd [nM]
KDVEMAISSRKGRTGTAAGDVAFPKGKENLASVLKRYKRRL-NH2 [N41P]	30 ± 10
CC(C)C[C@H](NC(=O)[C@H](CCCNC(=N)N)NC(=O)[C@H](CCCNC(=N)N)NC(=O)[C@H](CCCCN)NC(=O)[C@H](Cc1ccc(O)cc1)NC(=O)[C@H](CCCNC(=N)N)NC(=O)[C@H](CCCCN)NC(=O)[C@H](CC(C)C)NC(=O)[C@@H](NC(=O)[C@H](CO)NC(=O)[C@H](C)NC(=O)[C@H](CC(C)C)NC(=O)[C@H](CC(N)=O)NC(=O)[C@H](CCC(=O)O)NC(=O)[C@H](CCCCN)NC(=O)CNC(=O)[C@H](CCCCN)NC(=O)[C@@H]1CCCN1C(=O)[C@H](Cc1ccccc1)NC(=O)[C@H](C)N)C(C)C)C(N)=O [NIP-1] (H-AFPKGKENLASVLKRYKRRL-NH2)	68 ± 15
CC(C)C[C@H](NC(=O)[C@H](CCCNC(=N)N)NC(=O)[C@H](CCCNC(=N)N)NC(=O)[C@H](CCCCN)NC(=O)[C@H](Cc1ccc(O)cc1)NC(=O)[C@H](CCCNC(=N)N)NC(=O)[C@H](CCCCN)NC(=O)[C@H](CC(C)C)NC(=O)[C@@H](NC(=O)[C@H](CO)NC(=O)[C@H](C)NC(=O)[C@H](CC(C)C)NC(=O)[C@H](CC(N)=O)NC(=O)[C@H](CCC(=O)O)NC(=O)[C@H](CCCCN)NC(=O)CNC(=O)[C@H](CCCCN)NC(=O)[C@@H]1CCCN1C(=O)[C@H](Cc1ccccc1)NC(=O)[C@H](C)NC(=O)[C@@H](NC(=O)[C@H](CC(=O)O)NC(=O)CNC(=O)[C@H](C)NC(=O)[C@H](C)NC(=O)[C@@H](NC(=O)CNC(=O)[C@@H](NC(=O)[C@H](CCCNC(=N)N)NC(=O)CN)[C@@H](C)O)[C@@H](C)O)C(C)C)C(C)C)C(N)=O [N30P] (H-GRTGTAAGDVAFPKGKENLASVLKRYKRRL-NH2)	57 ± 19

biological target: T1, AtETR1^1–307 (TM–GAF); assay: MST; Alexa Fluor 488-labelled AtETR1 construct at 25 nM, peptide titrated; 50 mM Tris/HCl pH 8.0, 300 mM NaCl, 0.15 g/L fos-choline-16; 23-25 °C; temperature jump evaluated, one-binding-site model; settings: both partners purified

binding result	Molecule
binds	KDVEMAISSRKGRTGTAAGDVAFPKGKENLASVLKRYKRRL-NH2 (source: synthetic peptide, bought: GenScript (TFA salt, >98% HPLC purity)) [extended peptide N41P]
binds	AFPKGKENLASVLKRYKRRL-NH2 (source: synthetic peptide, bought: GenScript (TFA salt, >98% HPLC purity)) [extended peptide NIP-1]
binds	GRTGTAAGDVAFPKGKENLASVLKRYKRRL-NH2 (source: synthetic peptide, bought: GenScript (TFA salt, >98% HPLC purity)) [extended peptide N30P]

— paper PMC5832771, “Recognition motif and mechanism of ripening inhibitory peptides in plant hormone receptor ETR1” (Scientific Reports, 2018)
